Values quoted from earlier work as cited in patent publication US20120309722A1, “THERAPEUTIC REGIMENS FOR THE TREATMENT OF IMMUNOINFLAMMATORY DISORDERS” (priority 2007, published 2012).

Legend:
[1] = BNF guidelines; for Equivalent Dose to Prednisolone: Equal to 1 mg prednisolone: dose equivalent to 1 mg prednisolone; for Equivalent Dose to Prednisolone: Equal to 5 mg prednisolone: dose equivalent to 5 mg prednisolone
[2] = nasal administration; BNF 37 March 1999

| Compound | Equivalent Dose to Prednisolone: Equal to 1 mg prednisolone [1] | Equivalent Dose to Prednisolone: Equal to 5 mg prednisolone [1] | broadly similar dose from clinical dosing equivalence [2] |
| --- | --- | --- | --- |
| C[C@]12CCC(=O)C=C1CC[C@@H]1[C@@H]2[C@@H](O)C[C@@]2(C)[C@H]1CC[C@]2(O)C(=O)CO [hydrocortisone] | 4 mg | 20 mg |  |
| CC(=O)OCC(=O)[C@@]1(O)CC[C@H]2[C@@H]3CCC4=CC(=O)CC[C@]4(C)[C@H]3C(=O)C[C@@]21C [cortisone acetate] | 5 mg | 25 mg |  |
| C[C@]12C=CC(=O)C=C1CC[C@H]1[C@@H]3C[C@@H](O)[C@](O)(C(=O)CO)[C@@]3(C)C[C@H](O)[C@@]12F [triamcinolone] | 0.8 mg | 4 mg | 110 µg |
| CC(=O)OCC(=O)[C@@]12N=C(C)O[C@@H]1C[C@H]1[C@@H]3CCC4=CC(=O)C=C[C@]4(C)[C@H]3[C@@H](O)C[C@@]12C [deflazacort] | 1.2 mg | 6 mg |  |
| methyl prednisone | 0.8 mg | 4 mg |  |
